One series has as its system Plutella xylostella. Briefly: Plutella xylostella (Diamond Back Moth) artificial diet MTP test. It counts as in vivo. The settings on record: 144 h, 200 ppm (concentration in well 18 ppm), L2 larvae, 6 days, larval mortality, growth regulation.
Another series relates to Heliothis virescens. Briefly: Heliothis virescens (Tobacco Budworm) egg test on artificial diet. It counts as in vivo. The settings on record: 96 h, 200 ppm (concentration in well 18 ppm), eggs 0-24 h old on artificial diet, 4 days, egg mortality, larval mortality, growth regulation.
The next series concerns Thrips tabaci. Briefly: Thrips tabaci (Onion Thrips) sunflower leaf disc spray test. The settings on record: foliar, 168 h, 200 ppm spray on sunflower leaf discs, population of mixed ages, 7 days, mortality. It counts as in vivo.
The subject of another series is Diabrotica balteata. Briefly: Diabrotica balteata (Corn Root Worm) artificial diet MTP test. It counts as in vivo. The note with it: 120 h, 200 ppm (concentration in well 18 ppm), L2 larvae, 5 days, larval mortality, growth regulation.
Another series relates to Myzus persicae. Briefly: Myzus persicae (Green Peach Aphid) sunflower leaf disc spray test. It counts as in vivo. The note with it: foliar, 144 h, 200 ppm spray on sunflower leaf discs, aphid population of mixed ages, 6 DAT, mortality.
For a further series, the system named is Spodoptera littoralis. Briefly: Spodoptera littoralis (Egyptian Cotton Leafworm) cotton leaf disc spray test. It counts as in vivo. The note with it: foliar, 72 h, 200 ppm spray on cotton leaf discs, L1 larvae, mortality, feeding behavior, growth regulation 3 DAT.
The test system of a further series is Tetranychus urticae. Briefly: Tetranychus urticae (Two-Spotted Spider Mite) bean leaf disc spray test. It counts as in vivo. The note with it: foliar, 192 h, 200 ppm spray on bean leaf discs, mite populations of mixed ages, 8 days, egg, larval and adult mortality, read-out: control of Tetranychus urticae.

The text below walks through data of patent publication US20120295907A1, “INSECTICIDAL COMPOUNDS” (SYNGENTA CROP PROTECTION, LLC, priority 2009, published 2012).

Take `COc1c(NC(=O)c2cc(C)c([N+](=O)[O-])c(C)c2)cccc1C(=O)Nc1c(Cl)cc(C(F)(C(F)(F)F)C(F)(F)C(F)(F)F)cc1Br` (stereo not drawn) [B165]: the melting point came out at 218 °C. Same read-out and setting: then `CCOc1cc(C(=O)Nc2cccc(C(=O)Nc3c(Cl)cc(C(F)(C(F)(F)F)C(F)(F)C(F)(F)F)cc3Br)c2OC)ccc1[N+](=O)[O-]` (stereo not drawn) [B173], with 238 °C. As for `COc1cc([N+](=O)[O-])ccc1C(=O)Nc1cccc(C(=O)Nc2c(Cl)cc(C(F)(C(F)(F)F)C(F)(F)C(F)(F)F)cc2Br)c1OC` (stereo not drawn) [B177], the melting point turned out to be 190 °C. Compound `COc1c(NC(=O)c2ccc(C#N)cn2)cccc1C(=O)Nc1c(Cl)cc(C(F)(C(F)(F)F)C(F)(F)C(F)(F)F)cc1Br` (stereo not drawn) [B208] showed a melting point of 208 to 210 °C. The same measure, in the same setting: with `COc1c(NC(=O)c2c(Cl)cc(Br)cc2Cl)cccc1C(=O)Nc1c(Cl)cc(C(F)(C(F)(F)F)C(F)(F)C(F)(F)F)cc1Br` (stereo not drawn) [B209] the figure was 250 °C. Still for that read-out and setting: with `COc1c(NC(=O)c2cnc(Cl)nc2Cl)cccc1C(=O)Nc1c(Cl)cc(C(F)(C(F)(F)F)C(F)(F)C(F)(F)F)cc1Br` (stereo not drawn) [B210] the figure was 114 to 115 °C; with `COc1c(NC(=O)c2c(C)cc(Cl)cc2Cl)cccc1C(=O)Nc1c(Cl)cc(C(F)(C(F)(F)F)C(F)(F)C(F)(F)F)cc1Br` (stereo not drawn) [B211], 113 to 118 °C. `COc1c(NC(=O)c2cc([N+](=O)[O-])c(F)cc2C)cccc1C(=O)Nc1c(Cl)cc(C(F)(C(F)(F)F)C(F)(F)C(F)(F)F)cc1Br` (stereo not drawn) [B212] had a melting point of 83 to 84 °C. For `COc1c(NC(=O)c2ccc([N+](=O)[O-])cc2)cccc1C(=O)Nc1c(C)cc(C(F)(C(F)(F)F)C(F)(F)F)cc1C` [K2], the pest or weed control at 200 ppm in the series with Plutella xylostella, with Heliothis virescens, in the series on Thrips tabaci, in the series on Diabrotica balteata, in the series with Myzus persicae and in the series with Spodoptera littoralis was at least 80% in each case. In addition, the pest or weed control at 200 ppm in the series with Tetranychus urticae is at least 80%.

By melting point is commonly meant the temperature, or range, at which the solid turns liquid.
